Read-outs that look alike come from different tables or passages of the source. Positions of bridges follow the written chain, without caps; N, C: chain ends. Non-standard residues stand in square brackets, D forms with d. Residues, ends and D or L forms follow the SMILES beside them. Groups on a side chain read outwards from the residue. Chains are numbered I, II in the order given. *: point of attachment. X2 = OC[C@H]1O[C@@H](O[C@H]2[C@H](O)[C@@H](O)[C@H](*)O[C@@H]2CO)[C@H](O)[C@@H](O)[C@H]1O; X5 = CC(C)(C)[Si](F)(c1ccc(C[N+](C)(C)CC(=O)*)cc1)C(C)(C)C; DOTA = O=C(O)CN1CCN(CC(=O)O)CCN(CC(=O)*)CCN(CC(=O)O)CC1; dTyr(3-I) = N[C@H](Cc1ccc(O)c(I)c1)C(=O)O; 2Nal = N[C@@H](Cc1ccc2ccccc2c1)C(=O)O; dNMeOrn = CN[C@H](CCCN)C(=O)O; d(hCys) = N[C@H](CCS)C(=O)O; 4Amb = NCc1ccc(C(=O)O)cc1; 4Abz = Nc1ccc(C(=O)O)cc1; dDap = NC[C@@H](N)C(=O)O; Ahx = NCCCCCC(=O)O

The nature of data set [1]: Biodistribution in Jurkat tumor-bearing CB-17 SCID mice. It counts as in vivo. The note with it: female, CB-17 SCID, mouse, in vivo, iv, total radioactivity. The method, then:
All animal experiments were conducted in accordance with general animal welfare regulations in Germany and the institutional guidelines for the care and use of animals. To establish tumor xenografts, Jurkat cells (2-3×10^7 cells) were suspended in a mixture of Gibco's RPMI 1640 medium and Matrigel (1/1; v/v) from BD Biosciences (Heidelberg, Germany), and inoculated subcutaneously onto the right shoulder of 6-10 weeks old CB17-SCID mice from either Charles River GmbH (Sulzfeld, Germany) or the in-house mouse breeding facility. Mice were used when tumors had grown to a diameter of 5-8 mm (4-10 weeks after inoculation).
Approximately 0.5-20 MBq (0.02-0.20 nmol) of the ^125I-, ^177Lu-, ^99mTc-, ^18F- or ^68Ga-labeled ligand were injected into the tail vein of Jurkat tumor-bearing CB-17 SCID mice and the animals sacrificed after the respective biodistribution time. Selected organs were removed, weighted and measured in a γ-counter.

A short description of data set [2]: Octanol/PBS partition coefficient (logD7.4). It counts as physicochemical. The note with it: n-octanol/PBS pH 7.4, radiolabeled compound. The method, then: The tubes were vortexed at maximum speed for 3 min to ensure equilibrium before centrifugation at 15.000×g for 5 min on a Biofuge 15 from Heraeus Holding GmbH (Osterode, Germany). An aliquot of 100 μL of each fraction was measured in the γ-counter and the log D7.4 calculated as follows: […]

Data set [3] concerns CXCR4-expressing Chem_1 cells. As to the kind of experiment: Determination of internalization, dual tracer with 125I-Fc-131. The note with it: for Cell-bound [%] / Internalized [%]: of total cellular activity. It counts as cell-based. The method, then: CXCR4-expressing Chem_1 cells were grown in DMEM-F12 medium supplemented with 10 vol % FBS, 1 vol % NEA, 1 vol % PenStrep and 1 vol % HEPES (1.00 M). Cells were maintained in a 5% CO2 atmosphere at 37° C.
For in vitro experiments, cells were harvested by removal of the medium and incubation of the cells with trypsine/EDTA (0.05%/0.02%; w/v) for 30 in at 37° C.
Each well (n=3 for every time point) was either treated with 25 μL DMEM-F12 (+5 wt % BSA) or 25 μL of an AMD3100 stock (1 mM in H2O) for blockage of the receptors.
The experiment was stopped by placing the well-plate on ice and removing the supernatant. The cells were washed with 250 μL cold HBSS and the both fractions for each well combined, comprising the amount of unbound radioligand.
The supernatant was removed, the cells washed with cold HBSS and the respective fractions combined to obtain the amount of surface-bound radioligand.
The cells were then incubated with 300 μL NaOH (1.00 M in H2O) for at least 30 at r.t. before the supernatant was removed. The well was washed with another 300 μL NaOH and the fractions combined that contain the amount of internalized radioligand.
The three different fractions were subjected to activity measurement in the γ-counter, measuring the activity of the radionuclide used for the labeling of the peptide under investigation first. […] Data was corrected for non-specific internalization and referred to the specific internalization of the standard ligand

Take `C[C@@H](NC(=O)[C@@H](CCCNC(=N)N)NC(=O)[C@@H](CN)NC(=O)CN1CCN(CC(=O)O)CCN(CC(=O)O)CCN(CC(=O)O)CC1)C(=O)NCc1ccc(C(=O)NCCC[C@@H]2C(=O)N[C@@H](CCCNC(=N)N)C(=O)N[C@@H](Cc3ccc4ccccc4c3)C(=O)NCC(=O)N[C@H](Cc3ccc(O)cc3)C(=O)N2C)cc1` [CXCR4-DOTA-1 [Lu]] (cyclo([dY][dNMeOrn]([4Amb-dA-dR-dDap-DOTA])R[2Nal]G)): the tissue uptake at 1 h in data set [1] (% iD/g Blood) turned out to be 1.24 %ID/g; in data set [1] (% iD/g Bone), 0.72 %ID/g; in data set [1] (% iD/g Heart), 0.73 %ID/g; in data set [1] (% iD/g Intestine), 0.67 %ID/g; in data set [1] (% iD/g Kidney), 18.8 %ID/g; in data set [1] (% iD/g Liver) it was 11 %ID/g. Besides, the tissue uptake at 1 h in data set [1] (% iD/g Lung) stood at 2.16 %ID/g; in data set [1] (% iD/g Muscle), 0.22 %ID/g; in data set [1] (% iD/g Pancreas) it was 0.39 %ID/g; in data set [1] (% iD/g Spleen) it was 3.19 %ID/g; in data set [1] (% iD/g Stomach), 1.06 %ID/g; in data set [1] (% iD/g Tumor), 5.98 %ID/g.

With `C[C@@H](NC(=O)[C@@H](CCCNC(=N)N)NC(=O)[C@@H](CN)NC(=O)CN1CCN(CC(=O)O)CCN(CC(=O)O)CCN(CC(=O)O)CC1)C(=O)Nc1ccc(C(=O)NCCC[C@@H]2C(=O)N[C@@H](CCCNC(=N)N)C(=O)N[C@@H](Cc3ccc4ccccc4c3)C(=O)NCC(=O)N[C@H](Cc3ccc(O)cc3)C(=O)N2C)cc1` [CXCR4-DOTA-3 [Ga]] (cyclo([dY][dNMeOrn]([4Abz-dA-dR-dDap-DOTA])R[2Nal]G)), the logD7.4 in data set [2] is listed as −3.35 ± 0.08 (5).

For the compound `C[C@@H](NC(=O)[C@@H](CCCNC(=N)N)NC(=O)[C@@H](CN)NC(=O)CN1CCN(CC(=O)O)CCN(CC(=O)O)CCN(CC(=O)O)CC1)C(=O)Nc1ccc(C(=O)NCCC[C@@H]2C(=O)N[C@@H](CCCNC(=N)N)C(=O)N[C@@H](Cc3ccc4ccccc4c3)C(=O)NCC(=O)N[C@H](Cc3ccc(O)c(I)c3)C(=O)N2C)cc1` [CXCR4-DOTA-4 [Ga]] (cyclo([dTyr(3-I)][dNMeOrn]([4Abz-dA-dR-dDap-DOTA])R[2Nal]G)), in data set [2], the logD7.4 is reported as −2.65 ± 0.22 (6).

In the case of `C[C@@H](NC(=O)[C@@H](CCCNC(=N)N)NC(=O)[C@@H](CN)NC(=O)CCCCCNC(=O)[C@@H](CNC(=O)CN1CCN(CC(=O)O)CCN(CC(=O)O)CCN(CC(=O)O)CC1)NC(=O)[C@@H](CCS[C@@H]1O[C@H](CO)[C@@H](O[C@@H]2O[C@H](CO)[C@H](O)[C@H](O)[C@H]2O)[C@H](O)[C@H]1O)NC(=O)C[N+](C)(C)Cc1ccc([Si](F)(C(C)(C)C)C(C)(C)C)cc1)C(=O)Nc1ccc(C(=O)NCCC[C@@H]2C(=O)N[C@@H](CCCNC(=N)N)C(=O)N[C@@H](Cc3ccc4ccccc4c3)C(=O)NCC(=O)N[C@H](Cc3ccc(O)cc3)C(=O)N2C)cc1` [CXCR4-SiFA-7 [Ga]] (I: X5-[d(hCys)](X2)[dDap](DOTA)[Ahx][dDap][dR][dA][4Abz] / II: cyclo([dY][dNMeOrn]R[2Nal]G); amide I:C-II:2), the tissue uptake at 1 h in data set [1] (Blood, 1 h p.i., Jurkat xenograft, CB-17 SCID female mice, read-out: % iD/g Blood) was found to be 0.85 %ID/g; in data set [1] (Bone, 1 h p.i., Jurkat xenograft, CB-17 SCID female mice, read-out: % iD/g Bone), 2.89 %ID/g; in data set [1] (Heart, 1 h p.i., Jurkat xenograft, CB-17 SCID female mice, read-out: % iD/g Heart), 1.13 %ID/g; in data set [1] (Intestine, 1 h p.i., Jurkat xenograft, CB-17 SCID female mice, read-out: % iD/g Intestine), 0.81 %ID/g; in data set [1] (Kidney, 1 h p.i., Jurkat xenograft, CB-17 SCID female mice, read-out: % iD/g Kidney) it was 11.1 %ID/g; in data set [1] (Liver, 1 h p.i., Jurkat xenograft, CB-17 SCID female mice, read-out: % iD/g Liver), 53.5 %ID/g. Also, the tissue uptake at 1 h in data set [1] (Lung, 1 h p.i., Jurkat xenograft, CB-17 SCID female mice, read-out: % iD/g Lung) came out at 2.13 %ID/g; in data set [1] (Muscle, 1 h p.i., Jurkat xenograft, CB-17 SCID female mice, read-out: % iD/g Muscle), 0.26 %ID/g; in data set [1] (Pancreas, 1 h p.i., Jurkat xenograft, CB-17 SCID female mice, read-out: % iD/g Pancreas), 0.51 %ID/g; in data set [1] (Spleen, 1 h p.i., Jurkat xenograft, CB-17 SCID female mice, read-out: % iD/g Spleen), 6.96 %ID/g; in data set [1] (Stomach, 1 h p.i., Jurkat xenograft, CB-17 SCID female mice, read-out: % iD/g Stomach), 0.63 %ID/g; in data set [1] (Tumor, 1 h p.i., Jurkat xenograft, CB-17 SCID female mice, read-out: % iD/g Tumor) it was 0.67 %ID/g.

Regarding `C[C@@H](NC(=O)[C@@H](CCCNC(=N)N)NC(=O)[C@@H](CN)NC(=O)CCCCCNC(=O)[C@@H](CNC(=O)CN1CCN(CC(=O)O)CCN(CC(=O)O)CCN(CC(=O)O)CC1)NC(=O)CCCCC[N+]1=C(/C=C/C=C/C=C2/N(C)c3ccc(S(=O)(=O)O)cc3C2(C)C)C(C)(C)c2cc(S(=O)(=O)[O-])ccc21)C(=O)Nc1ccc(C(=O)NCCC[C@@H]2C(=O)N[C@@H](CCCNC(=N)N)C(=O)N[C@@H](Cc3ccc4ccccc4c3)C(=O)NCC(=O)N[C@H](Cc3ccc(O)cc3)C(=O)N2C)cc1` [[^natLu]CXCR4-OI-3, metal not drawn], the “Internalized in relation to 125I-Fc-131 [%]” value in data set [3] (30 min) is reported as 442 ± 12.1%; in data set [3] (90 min) it was 540 ± 42.7%. In addition, the “Cell-bound [%]” value in data set [3] (30 min) is given as 5.39 ± 0.41%; in data set [3] (90 min), 5.36 ± 0.47%. The “Internalized [%]” value is on record as 16.5 ± 0.19% in data set [3] (30 min) and 25.2 ± 1.08% in data set [3] (90 min). The tissue uptake at 1 h was found to be 1.9 %ID/g in data set [1] (% iD/g Blood); 1.1 %ID/g in data set [1] (% iD/g Bone); 1.39 %ID/g in data set [1] (% iD/g Heart); 0.85 %ID/g in data set [1] (% iD/g Intestine); 35 %ID/g in data set [1] (% iD/g Kidney); 36.3 %ID/g in data set [1] (% iD/g Liver). The tissue uptake at 1 h in data set [1] (% iD/g Lung) was determined as 4.28 %ID/g; in data set [1] (% iD/g Muscle), 0.33 %ID/g; in data set [1] (% iD/g Pancreas), 0.44 %ID/g; in data set [1] (% iD/g Spleen) it was 5.94 %ID/g; in data set [1] (% iD/g Stomach), 1.43 %ID/g; in data set [1] (% iD/g Tumor), 2.13 %ID/g.

`CN1C(=O)[C@@H](Cc2ccc(O)cc2)NC(=O)CNC(=O)[C@H](Cc2ccc3ccccc3c2)NC(=O)[C@H](CCCNC(=N)N)NC(=O)[C@H]1CCCNC(=O)c1ccc(CNC(=O)CN2CCN(CC(=O)O)CCN(CC(=O)O)CCN(CC(=O)O)CC2)cc1` [^68Ga-Pentixafor, cyclo(D-Tyr^1-D-[NMe](DOTA)-Orn^2Arg^3-Nal^4-Gly^5), metal not drawn, reference compound] (cyclo([dY][dNMeOrn]([4Amb-DOTA])R[2Nal]G)): the tissue uptake at 1 h is 1.29 %ID/g in data set [1] (% iD/g Blood); 0.48 %ID/g in data set [1] (% iD/g Bone); 0.56 %ID/g in data set [1] (% iD/g Heart); 0.43 %ID/g in data set [1] (% iD/g Intestine); 2.75 %ID/g in data set [1] (% iD/g Kidney); 1.59 %ID/g in data set [1] (% iD/g Liver). Besides, the tissue uptake at 1 h in data set [1] (% iD/g Lung) came out at 1.57 %ID/g; in data set [1] (% iD/g Muscle), 0.19 %ID/g; in data set [1] (% iD/g Pancreas) it was 0.14 %ID/g; in data set [1] (% iD/g Spleen), 1.48 %ID/g; in data set [1] (% iD/g Stomach), 0.51 %ID/g; in data set [1] (% iD/g Tumor), 7.58 %ID/g.

The record behind these values is US20250288704A1, “CXCR4-LIGANDS FOR DIAGNOSTIC AND THERAPEUTIC USE AND PRECURSORS THEREOF” (priority 2021, published 2025).
